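Where inhibition never reached the appropriate level, the endpoint shown equals the highest concentration tested. Otherwise, values were interpolated linearly from a five-concentration, 48-hour dose response in 96-well plates. The concentration for 50% growth inhibition is given as GI50.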 Activity calls are given as the source filed them. No stated cut-off is given here; in the data, active = GI50 up to about 1.1 µM and inactive = higher.
Key:
Experiment in all cases: DTP human tumour cell line panel, 48 h
Malme-3M = system: Malme-3M
SF-539 = system: SF-539
A498 = system: A498
SN12C = system: SN12C
UACC-257 = system: UACC-257
A549 = system: A549
SR = system: SR
MDA-MB-231 = system: MDA-MB-231
U-251 = system: U-251
CCRF-CEM = system: CCRF-CEM
HOP-92 = system: HOP-92
HCT-116 = system: HCT-116
DU-145 = system: DU-145
NCI-H522 = system: NCI-H522
T47D = system: T47D
M14 = system: M14
MOLT-4 = system: MOLT-4
SW-620 = system: SW-620
HCT-15 = system: HCT-15
NCI-H23 = system: NCI-H23

Row | SMILES | GI50 (Malme-3M) | GI50 (SF-539) | GI50 (A498) | GI50 (SN12C) | GI50 (UACC-257) | GI50 (A549) | GI50 (SR) | GI50 (MDA-MB-231) | GI50 (U-251) | GI50 (CCRF-CEM) | GI50 (HOP-92) | GI50 (HCT-116) | GI50 (DU-145) | GI50 (NCI-H522) | GI50 (T47D) | GI50 (M14) | GI50 (MOLT-4) | GI50 (SW-620) | GI50 (HCT-15) | GI50 (NCI-H23)
1 | CS(=O)(=O)OCCN(CCOS(C)(=O)=O)c1ccc(/C=N/c2ccc3oc(=O)ccc3c2)cc1 | 8.73 µM (inactive) | 4.43 µM (inactive) | 2 µM (inactive) | 6.78 µM (inactive) | 6.82 µM (inactive) | 3.47 µM (inactive) | 0.395 µM (active) | 32.9 µM (inactive) | 9.38 µM (inactive) | 0.871 µM (active) | 12.3 µM (inactive) | 37.7 µM (inactive) | 0.968 µM (active) | 0.211 µM (active) | 5.6 µM (inactive) | 2.82 µM (inactive) | 0.318 µM (active) | 14.2 µM (inactive) | 7.21 µM | 2.04 µM (inactive)
2 | O=[N+]([O-])/C(C(Cl)=C(Cl)Cl)=C(/Sc1ccccc1)N1CCOCC1 | 5.13 µM (inactive) | 6.03 µM (inactive) | 14.6 µM (inactive) | 4.76 µM (inactive) | 9.91 µM (inactive) | 18.6 µM (inactive) | 2.12 µM (inactive) | 5.12 µM (inactive) | 10.5 µM (inactive) | 1.83 µM (inactive) | 2.34 µM (inactive) | 1.67 µM (inactive) | 12.6 µM (inactive) | 4.31 µM (inactive) | 3.02 µM (inactive) | 3 µM (inactive) | 2 µM (inactive) | 2.26 µM (inactive) | 3.45 µM | 11.3 µM (inactive)
3 | CCCS(=O)(=O)Nc1ccc(Nc2c3ccccc3nc3ccccc23)c(OC)c1 | 1.04 µM (active) | 1.17 µM (inactive) | 0.904 µM (active) | 0.127 µM (active) | 5.53 µM (inactive) | 0.43 µM (active) | 0.0236 µM (active) | 3.32 µM (inactive) | 0.641 µM (active) | 0.0475 µM (active) | 1.73 µM (inactive) | 0.929 µM (active) | 0.271 µM (active) | 0.38 µM (active) | 0.902 µM (active) | 0.467 µM (active) | 0.0211 µM (active) | 2.08 µM (inactive) | 1.35 µM | 0.421 µM (active)
4 | OC(CC(CC(O)(C(F)(F)Cl)C(F)(F)Cl)=NNc1ccccc1)(C(F)(F)Cl)C(F)(F)Cl | 3.7 µM (inactive) | 2.95 µM (inactive) | 2.54 µM (inactive) | 3.36 µM (inactive) | 1.88 µM (inactive) | 3.41 µM (inactive) | 5.79 µM (inactive) | 2.78 µM (inactive) | 3.3 µM (inactive) | > 10 µM (inactive) | 2.01 µM (inactive) | 1.98 µM (inactive) | 3.3 µM (inactive) | 4.4 µM (inactive) | 4.11 µM (inactive) | 4.26 µM (inactive) | > 10 µM (inactive) | 3.27 µM (inactive) | 3.23 µM | 2.41 µM (inactive)
5 | CN(C)c1ccc(/N=N\c2cccc3ccoc23)cc1 | > 100 µM (inactive) | > 100 µM (inactive) | > 100 µM (inactive) | > 75 µM (inactive) | > 60.7 µM (inactive) | > 71.9 µM (inactive) | 23.3 µM (inactive) | > 76.9 µM (inactive) | > 62.5 µM (inactive) | > 100 µM (inactive) | 70.5 µM (inactive) | 69.2 µM (inactive) | > 100 µM (inactive) | 35.4 µM (inactive) | 61.7 µM (inactive) | > 40.8 µM (inactive) | 17.1 µM (inactive) | 50.8 µM (inactive) | 45.2 µM | > 68.7 µM (inactive)
6 | CC(C)(C)C1=NN=C2c3ccccc3C(=O)C21 (centres undefined) | 36.2 µM (inactive) | 38.4 µM (inactive) | 21.3 µM (inactive) | 42.6 µM (inactive) | 62.7 µM (inactive) | 45.1 µM (inactive) | 24.8 µM (inactive) | 40.4 µM (inactive) | 46.9 µM (inactive) | 63.2 µM (inactive) | 15.5 µM (inactive) | > 100 µM (inactive) | 31.3 µM (inactive) | 35.4 µM (inactive) | > 100 µM (inactive) | 76.6 µM (inactive) | 22.4 µM (inactive) | 65.6 µM (inactive) | 29.4 µM | 49 µM (inactive)
7 | Brc1c(C#CCC2CCCCC2)ccc(C#CCC2CCCCC2)c1Br | > 100 µM (inactive) | > 100 µM (inactive) | > 100 µM (inactive) | > 100 µM (inactive) | > 100 µM (inactive) | > 100 µM (inactive) | > 100 µM (inactive) | > 100 µM (inactive) | > 100 µM (inactive) | > 100 µM (inactive) | > 100 µM (inactive) |  | > 100 µM (inactive) | > 100 µM (inactive) | > 100 µM (inactive) | > 100 µM (inactive) | > 100 µM (inactive) | > 100 µM (inactive) | > 100 µM | 
8 | ClC(Cl)=C1C(=C(Cl)Cl)C(Cl)(Cl)C1(Cl)Cl | 2.42 µM (inactive) | 2.34 µM (inactive) | 11.6 µM (inactive) |  | 3.51 µM (inactive) | 9.51 µM (inactive) | 0.214 µM (active) | 2.4 µM (inactive) | 5.41 µM (inactive) | 0.101 µM (active) | 1.24 µM (inactive) | 1.36 µM (inactive) | 10.7 µM (inactive) | 0.0612 µM (active) | 4.92 µM (inactive) | 1.06 µM (active) | 0.126 µM (active) | 1.18 µM (inactive) | 1.14 µM | 1.04 µM (active)
9 | OCC(CCc1c[nH]c2ccccc12)c1c[nH]c2ccccc12 (centres undefined) | 17 µM (inactive) | 18.4 µM (inactive) | 15.2 µM (inactive) | 17.5 µM (inactive) | 11.6 µM (inactive) | 17.6 µM (inactive) | 12.1 µM (inactive) | 14.1 µM (inactive) | 16.7 µM (inactive) |  | 15.2 µM (inactive) | 15.5 µM (inactive) | 16.7 µM (inactive) | 16 µM (inactive) | 16 µM (inactive) | 15.3 µM (inactive) | 14.5 µM (inactive) | 15.7 µM (inactive) | 14.7 µM | 15.6 µM (inactive)
10 | COc1ccccc1/[N+]([O-])=C/c1ccccc1OC(=S)S | 96.4 µM (inactive) | 57.1 µM (inactive) | 32.4 µM (inactive) | 88.1 µM (inactive) | 28.1 µM (inactive) | > 100 µM (inactive) | 31.5 µM (inactive) | 30.9 µM (inactive) | 41.7 µM (inactive) |  | 19 µM (inactive) | 42 µM (inactive) | 70.5 µM (inactive) | 22.3 µM (inactive) | 17.6 µM (inactive) | 41.1 µM (inactive) | 27.5 µM (inactive) | 44.5 µM (inactive) | 23 µM | 28.2 µM (inactive)
11 | COc1cc2c(cc1Cc1c(F)cccc1Cl)nc(-c1c(F)cccc1Cl)n2Cc1c(F)cccc1Cl | 20 µM (inactive) | 21 µM (inactive) | 27.3 µM (inactive) | 20.9 µM (inactive) | 22.5 µM (inactive) | 20.7 µM (inactive) | 26.7 µM (inactive) | 31.8 µM (inactive) | 35.2 µM (inactive) | 2.1 µM (inactive) | 2.64 µM (inactive) | 20 µM (inactive) | 28.1 µM (inactive) | 16.1 µM (inactive) | 10.2 µM (inactive) | > 100 µM (inactive) | 36 µM (inactive) |  | 62.7 µM | 19.8 µM (inactive)

Source: ChEMBL document CHEMBL1201862, “PubChem BioAssay data set” (2004)
